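These data come from cells grown in 96-well plates and exposed to compound for 48 hours at five concentrations. Definition used: TGI = concentration required for complete inhibition of growth.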
Experiments:
Assay in all cases: DTP human tumour cell line panel, 48 h
786-0 renal = test system: 786-0 renal
A498 renal = test system: A498 renal
A549 NSCLC = test system: A549 NSCLC
ACHN renal = test system: ACHN renal
BT-549 breast = test system: BT-549 breast
CAKI-1 renal = test system: CAKI-1 renal
CCRF-CEM leukemia = test system: CCRF-CEM leukemia
COLO 205 colon = test system: COLO 205 colon
DU-145 prostate = test system: DU-145 prostate
EKVX NSCLC = test system: EKVX NSCLC
HCC-2998 colon = test system: HCC-2998 colon
HCT-116 colon = test system: HCT-116 colon
HCT-15 colon = test system: HCT-15 colon
HOP-62 NSCLC = test system: HOP-62 NSCLC
HOP-92 NSCLC = test system: HOP-92 NSCLC
HS 578T breast = test system: HS 578T breast
IGROV1 ovarian = test system: IGROV1 ovarian
K-562 leukemia = test system: K-562 leukemia
KM12 colon = test system: KM12 colon
LOX IMVI melanoma = test system: LOX IMVI melanoma
M14 melanoma = test system: M14 melanoma
MALME-3M melanoma = test system: MALME-3M melanoma
MCF7 breast = test system: MCF7 breast
MDA-MB-231 breast = test system: MDA-MB-231 breast
MDA-MB-435 = test system: MDA-MB-435
MDA-N = test system: MDA-N
MOLT-4 leukemia = test system: MOLT-4 leukemia
NCI-H226 lung = test system: NCI-H226 lung
NCI-H23 lung = test system: NCI-H23 lung
NCI-H460 lung = test system: NCI-H460 lung
NCI-H522 lung = test system: NCI-H522 lung
NCI/ADR-RES ovarian = test system: NCI/ADR-RES ovarian
OVCAR-3 ovarian = test system: OVCAR-3 ovarian
OVCAR-4 ovarian = test system: OVCAR-4 ovarian
OVCAR-5 ovarian = test system: OVCAR-5 ovarian
OVCAR-8 ovarian = test system: OVCAR-8 ovarian
PC-3 prostate = test system: PC-3 prostate
RPMI-8226 leukemia = test system: RPMI-8226 leukemia
RXF 393 renal = test system: RXF 393 renal
SF-268 CNS = test system: SF-268 CNS
SF-295 CNS = test system: SF-295 CNS
SF-539 CNS = test system: SF-539 CNS
SK-MEL-2 melanoma = test system: SK-MEL-2 melanoma
SK-MEL-28 melanoma = test system: SK-MEL-28 melanoma
SK-MEL-5 melanoma = test system: SK-MEL-5 melanoma
SK-OV-3 ovarian = test system: SK-OV-3 ovarian
SN12C renal = test system: SN12C renal
SNB-19 CNS = test system: SNB-19 CNS
SNB-75 CNS = test system: SNB-75 CNS
SR leukemia = test system: SR leukemia
SW-620 colon = test system: SW-620 colon
T-47D breast = test system: T-47D breast
TK-10 renal = test system: TK-10 renal
U251 CNS = test system: U251 CNS
UACC-257 melanoma = test system: UACC-257 melanoma
UACC-62 melanoma = test system: UACC-62 melanoma
UO-31 renal = test system: UO-31 renal

## O=c1c2ccccc2oc2nc3n(c(=O)c12)CCCS3
786-0 renal
  TGI: > 100 µM
A498 renal
  TGI: > 100 µM
A549 NSCLC
  TGI: > 100 µM
ACHN renal
  TGI: > 100 µM
BT-549 breast
  TGI: > 100 µM
CAKI-1 renal
  TGI: > 100 µM
CCRF-CEM leukemia
  TGI: > 100 µM
COLO 205 colon
  TGI: > 100 µM
DU-145 prostate
  TGI: > 100 µM
EKVX NSCLC
  TGI: > 100 µM
HCC-2998 colon
  TGI: > 100 µM
HCT-116 colon
  TGI: > 100 µM
HCT-15 colon
  TGI: > 100 µM
HOP-62 NSCLC
  TGI: > 100 µM
HOP-92 NSCLC
  TGI: > 100 µM
HS 578T breast
  TGI: > 100 µM
IGROV1 ovarian
  TGI: > 100 µM
K-562 leukemia
  TGI: > 100 µM
KM12 colon
  TGI: > 100 µM
LOX IMVI melanoma
  TGI: > 100 µM
M14 melanoma
  TGI: > 100 µM
MALME-3M melanoma
  TGI: > 100 µM
MCF7 breast
  TGI: > 100 µM
MDA-MB-231 breast
  TGI: > 100 µM
MDA-MB-435
  TGI: > 100 µM
MDA-N
  TGI: > 100 µM
MOLT-4 leukemia
  TGI: > 100 µM
NCI-H226 lung
  TGI: > 100 µM
NCI-H23 lung
  TGI: > 100 µM
NCI-H460 lung
  TGI: > 100 µM
NCI-H522 lung
  TGI: > 100 µM
NCI/ADR-RES ovarian
  TGI: > 100 µM
OVCAR-3 ovarian
  TGI: > 100 µM
OVCAR-4 ovarian
  TGI: > 100 µM
OVCAR-5 ovarian
  TGI: > 100 µM
OVCAR-8 ovarian
  TGI: > 100 µM
PC-3 prostate
  TGI: > 100 µM
RPMI-8226 leukemia
  TGI: > 100 µM
RXF 393 renal
  TGI: > 100 µM
SF-268 CNS
  TGI: > 100 µM
SF-295 CNS
  TGI: > 100 µM
SF-539 CNS
  TGI: > 100 µM
SK-MEL-2 melanoma
  TGI: > 100 µM
SK-MEL-28 melanoma
  TGI: > 100 µM
SK-MEL-5 melanoma
  TGI: > 100 µM
SK-OV-3 ovarian
  TGI: > 100 µM
SN12C renal
  TGI: > 100 µM
SNB-19 CNS
  TGI: > 100 µM
SNB-75 CNS
  TGI: > 100 µM
SR leukemia
  TGI: > 100 µM
SW-620 colon
  TGI: > 100 µM
T-47D breast
  TGI: > 100 µM
TK-10 renal
  TGI: > 100 µM
U251 CNS
  TGI: > 100 µM
UACC-257 melanoma
  TGI: > 100 µM
UACC-62 melanoma
  TGI: > 100 µM
UO-31 renal
  TGI: 29.2 µM

Reference: PubChem BioAssay (NCI)
